In US20130072899A1, “Pharmaceutical Formulations for Iontophoretic Delivery of Gallium” (Nitric BloTherapeutics, Inc., priority 2008, published 2013):
Several values for one entry are separate records, joined by “and”; a condition that tells them apart may be missing. Identical values can stand only once. Like-named read-outs stand apart in the source and are kept apart here.

Legend:
[1] = Gallium permeation through full thickness human skin, Franz cells (effect of concentration and iontophoresis duration); type: in vitro ADME; conditions: for Amount of Ga detected in receiver after 70 h / Steady state Ga flux: nitrate hydrate; for increase in gallium permeation compared to passive cells: 16.7% w/v, 70 h
Protocol: Human full thickness skin was stored in the same fashion as the epidermal sheet (Example 3), and a similar Franz cell assembly technique was adopted. The effect of concentration was investigated by applying 16.7, 1.5 and 0.15 % w/v gallium solutions in pH 5.0 citric acid buffer to the donor compartment (0.8 mL). Ten minutes of 400 μA iontophoresis was applied to all of the cells and 0.5 mL samples were removed after 0, 24, 28, 42, 65 and 70 h and replaced with receiver fluid. The gallium in the samples was assayed using the LC ion-exchange method. […] Samples of 0.5 mL were removed for LC ion-exchange assay after 0, 24, 28, 42, 52 and 70 h and replaced with receiver fluid. […] Gallium solutions containing 2.4, 1.6, 0.79, 0.395 and 0.1975 mg of gallium in 20 μL of water were applied to the stratum corneum of the skin samples using a positive displacement pipette (Eppendorf, Cambridge, UK). The samples were then left for 24 h to allow the gallium to permeate the skin. The skin samples were then finely sliced using scissors, chilled and homogenised for five minutes using a T10 Ultra-Turax homogeniser (IKA works, Staufen, Germany) using 30 second pulses. The scalpel, scissors, forceps and homogeniser blades were washed through using 10 mL of PDCA mobile phase concentrate as the extractant. The PDCA concentrate (pH 4.2) was freshly made every week by weighing approximately 5.8 g PDCA, 18.5 g potassium hydroxide, 4.9 g potassium sulphate and 17.0 g of formic acid into a 1000 mL volumetric and making up to volume with DiH2O. The skin-PDCA concentrate homogenate was allowed to mix for a further 24 h before being filtered using 0.45 μm, 30 mm cellulose acetate syringe filters (Orange Scientific, Braine l'Alleud, Belgium). The gallium in the remaining solution was assayed using the LC ion-exchange method. The binding affinity was calculated by subtracting the amount of gallium recovered by the extraction from the amount applied to the skin, in order to gain the amount of gallium still bound to skin in the homogenate. This figure was then divided by the mass of the skin sample to calculate the amount of gallium bound per gram of skin.

[2] = Chemical stability of Ga in different 50 mM buffers (HPLC gallium recovery); type: physicochemical
Protocol: The chemical stability of Ga in different 50 mM buffers was assessed including TRIS (pH 7.0), pyrrolidine (pH 11.3), citric acid (pH 5.0), borate (pH 8.0), formic acid (pH 2.5), phosphate (pH 7.3) and HEPES (pH 7.2). Three standard solutions of Ga in each buffer was assessed by HPLC analysis using the method described in Example 1 at four time points 0, 24, 48 and 100 h. Performance was measured by percentage gallium recovery according to the following formula: […]

[3] = Effect of speciation and ITP on gallium deposition within full thickness human skin; type: in vitro ADME
Protocol: An infinite dose skin deposition study was performed using full thickness human skin. Small Franz cells were constructed as previously described and the mass of skin section recorded. The Franz cells were set up with a receiver fluid of 0.05 M citric acid buffer (pH 5.0) and allowed to equilibrate for one hour. Donor solutions were prepared and 0.5 mL of each added to the appropriate Franz cell donor compartment. Each cell was subjected to either 60 min of ITP or an equivalent period of passive permeation. The cells were sacrificed after cither 60 min (directly after ITP, n=8) or after 25 h (24 h of permeation, n=8). […] The skin samples were removed and reweighed. […] The skin samples were then finely sliced using scissors, chilled and homogenised for five minutes using a T10 Ultra-Turax homogeniser (IKA werks, Staufen, Germany) using 30 second pulses. The scalpel blade, scissors, forceps and homogeniser blades were washed into the homogenate using PDCA mobile phase (five times concentrate) to minimise drug loss from the method. The skin-PDCA concentrate homogenate was allowed to mix for a further 24 h before being filtered using 0.45 μm, 30 mm cellulose acetate syringe filters (Orange Scientific, Braine l'Alleud, Belgium).

[4] = system: collagen synthesis; conditions: cited from earlier work
[5] = for specific binding affinity of human full thickness skin for gallium (mean): mean of samples A-E, nitrate hydrate
[6] = 0.15% w/v, iontophoresis 10 min, 400 μA, listed as Ga
[7] = 1.5% w/v, iontophoresis 10 min, 400 μA, listed as Ga
[8] = 16.67% w/v, iontophoresis 0 min (passive), listed as Ga
[9] = 16.67% w/v, iontophoresis 0 min (passive)
[10] = 16.67% w/v, iontophoresis 10 min, 400 μA, listed as Ga
[11] = 16.67% w/v, iontophoresis 10 min, 400 μA, listed as gallium
[12] = 16.67% w/v, iontophoresis 60 min, 400 μA, listed as Ga
[13] = 16.67% w/v, iontophoresis 60 min, 400 μA
[14] = Sample D, Ga delivered 0.395 mg
[15] = Sample E, Ga delivered 0.1975 mg

## O=[N+]([O-])[O-].O=[N+]([O-])[O-].O=[N+]([O-])[O-].[Ga+3] [gallium nitrate, Gallium (III) nitrate hydrate]
[1]; [6]
  Amount of Ga detected in receiver after 70 h: 0.0028 ± 0.006 mg/cm^2
  Steady state Ga flux: 0.008 μg/cm^2/h and 0.008 ± 0.005 μg/cm^2/h
[1]; 0.15% w/v, iontophoresis 10 min, 400 μA
  Amount of Ga detected in receiver after 70 h: 0.0028±0.006 mg/cm^2
[1]; 1.5% w/v vs 16.67% w/v Ga, 10 min iontophoresis
  reduction of amount of drug permeating the skin: 10.6%
[1]; [7]
  Amount of Ga detected in receiver after 70 h: 0.044 ± 0.034 mg/cm^2
  Steady state Ga flux: 0.9 μg/cm^2/h and 0.900 ± 0.695 μg/cm^2/h
[1]; 1.5% w/v, iontophoresis 10 min, 400 μA
  Amount of Ga detected in receiver after 70 h: 0.0438±0.034 mg/cm^2
[1]; [8]
  Amount of Ga detected in receiver after 70 h: 0.004 ± 0.011 mg/cm^2
  Steady state Ga flux: 0.009 ± 0.003 μg/cm^2/h
[1]; [9]
  Amount of Ga detected in receiver after 70 h: 0.004±0.011 mg/cm^2
  Steady state Ga flux: 0.009±0.003 μg/cm^2/h
[1]; [10]
  Amount of Ga detected in receiver after 70 h: 0.049 ± 0.013 mg/cm^2
  Steady state Ga flux: 0.9 μg/cm^2/h and 0.900 ± 0.238 μg/cm^2/h
[1]; [11]
  Amount of Ga detected in receiver after 70 h: 0.049±0.013 mg/cm^2
  Steady state Ga flux: 0.9±0.238 μg/cm^2/h
[1]; 16.67% w/v, iontophoresis 10 min, 400 μA
  Amount of Ga detected in receiver after 70 h: 0.049±0.013 mg/cm^2
[1]; [12]
  Amount of Ga detected in receiver after 70 h: 0.063 ± 0.022 mg/cm^2
  Steady state Ga flux: 1.300 ± 0.450 μg/cm^2/h
[1]; [13]
  Amount of Ga detected in receiver after 70 h: 0.063±0.022 mg/cm^2
  Steady state Ga flux: 1.3±0.450 μg/cm^2/h
[1]; 10 min iontophoresis
  increase in gallium permeation compared to passive cells: 1125%
[1]; 60 min iontophoresis
  increase in gallium permeation compared to passive cells: 1475%
[2]; 0.25 mg/ml Ga in pyrrolidine buffer, P<0.05, ANOVA
  Ga loss after 100 h: significant Ga loss
[2]; Borate (pH 8.0) 50 mM, listed as Ga, nitrate hydrate
  [Ga] mg/ml recovered: no peaks observed
[2]; Citric acid (pH 5.0) 50 mM, target conc. 0.13 mg/ml
  [Ga] mg/ml recovered: 0.15 mg/mL
[2]; Citric acid (pH 5.0) 50 mM, target conc. 0.25 mg/ml
  [Ga] mg/ml recovered: 0.28 mg/mL
[2]; Citric acid (pH 5.0) 50 mM, target conc. 0.5 mg/ml
  [Ga] mg/ml recovered: 0.54 mg/mL
[2]; Formic acid (pH 2.5) 50 mM, target conc. 0.13 mg/ml
  [Ga] mg/ml recovered: 0.16 mg/mL
[2]; Formic acid (pH 2.5) 50 mM, target conc. 0.25 mg/ml
  [Ga] mg/ml recovered: 0.29 mg/mL
[2]; Formic acid (pH 2.5) 50 mM, target conc. 0.5 mg/ml
  [Ga] mg/ml recovered: 0.55 mg/mL
[2]; HEPES (pH 7.2) 50 mM, target conc. 0.13 mg/ml
  [Ga] mg/ml recovered: 0.10 mg/mL
[2]; HEPES (pH 7.2) 50 mM, target conc. 0.25 mg/ml
  [Ga] mg/ml recovered: 0.06 mg/mL
[2]; HEPES (pH 7.2) 50 mM, target conc. 0.5 mg/ml
  [Ga] mg/ml recovered: 0.13 mg/mL
[2]; Phosphate (pH 7.3) 50 mM, target conc. 0.13 mg/ml
  [Ga] mg/ml recovered: 0.04 mg/mL
[2]; Phosphate (pH 7.3) 50 mM, target conc. 0.25 mg/ml
  [Ga] mg/ml recovered: 0.11 mg/mL
[2]; Phosphate (pH 7.3) 50 mM, target conc. 0.5 mg/ml
  [Ga] mg/ml recovered: 0.30 mg/mL
[2]; Pyrrolidine (pH 11.3) 50 mM, target conc. 0.13 mg/ml
  [Ga] mg/ml recovered: 0.13 mg/mL
[2]; Pyrrolidine (pH 11.3) 50 mM, target conc. 0.25 mg/ml
  [Ga] mg/ml recovered: 0.25 mg/mL
[2]; Pyrrolidine (pH 11.3) 50 mM, target conc. 0.5 mg/ml
  [Ga] mg/ml recovered: 0.49 mg/mL
[2]; TRIS (pH 7.0) 50 mM, target conc. 0.13 mg/ml
  [Ga] mg/ml recovered: 0.01 mg/mL
[2]; TRIS (pH 7.0) 50 mM, target conc. 0.25 mg/ml
  [Ga] mg/ml recovered: 0.13 mg/mL
[2]; TRIS (pH 7.0) 50 mM, target conc. 0.5 mg/ml
  [Ga] mg/ml recovered: 0.49 mg/mL
[2]; citric or formic acid buffer, P>0.05, ANOVA
  Ga loss between 0 and 100 h: No significant Ga loss
[3]; Anodal, 60 min ITP then 24 h
  ITP Ga skin deposition 24 h: 1.888±1.159 mg/cm^2
[3]; Anodal, 60 min of 615 μA/cm^2 ITP
  ITP Ga skin deposition 60 min: 1.203±0.248 mg/cm^2
[3]; passive, 60 min
  60 min passive skin deposition: 0.288±0.258 mg/cm^2
[4]; nitrate hydrate
  maximum effective dose: 100 uM and 0.0256 mg/ml
[4]; per mg dry weight tissue, Goncalves et al., 2002, Bockman patent
  effective range per mg tissue: 1 to 1000 ng/mg
[4]; published, Bockman et al. 1993, Goncalves et al. 2002
  effective (desired) concentration range: 0.25 to 100 µM
[5]; Sample A, Ga delivered 2.4 mg
  % Ga recovery: 97.1%
  Binding: 0.138 mg/g
  Ga bound to skin: 0.07 mg
  Ga recovered: 2.33 mg
[5]; Sample B, Ga delivered 1.6 mg
  % Ga recovery: 92.5%
  Binding: 0.178 mg/g
  Ga bound to skin: 0.12 mg
  Ga recovered: 1.48 mg
[5]; Sample C, Ga delivered 0.79 mg
  % Ga recovery: 87.3%
  Binding: 0.193 mg/g
  Ga bound to skin: 0.1 mg
  Ga recovered: 0.69 mg
[5]; [14]
  % Ga recovery: 73.4%
  Binding: 0.197 mg/g
  Ga bound to skin: 0.105 mg
  Ga recovered: 0.29 mg
[5]; [15]
  % Ga recovery: 60.8%
  Binding: 0.151 mg/g
  Ga bound to skin: 0.0775 mg
  Ga recovered: 0.12 mg
[5]; listed as Ga
  specific binding affinity of human full thickness skin for gallium (mean): 0.171 mg/g
[5]
  specific binding affinity of human full thickness skin for gallium (mean): 0.17 ± 0.03 mg/g
